Data reported in patent publication US8062995B2, “Dioxazine-substituted arylamides” (Bayer CropScience AG, priority 2005, dated 2011).

Columns and labels:
[1] = tested on: larvae of the mustard beetle (Phaedon cochleariae); test: Phaedon test (sprayed Chinese cabbage discs); assay type: in vivo
Description: (§1) Phaedon Test Solvents: 78 parts by weight of acetone • • 1.5 parts by weight of dimethylformamide Emulsifier: 0.5 part by weight of alkylaryl polyglycol ether To produce a suitable preparation of active compound, 1 part by weight of active compound is mixed with the stated amounts of solvents and emulsifier and the concentrate is diluted with emulsifier-containing water to the desired concentration. Discs of Chinese cabbage (Brassica pekinensis) are sprayed with an active compound preparation of the desired concentration and, after drying, populated with larvae of the mustard beetle (Phaedon cochleariae). After the desired period of time, the activity in % is determined. 100% means that all beetle larvae have been killed; 0% means that none of the beetle larvae have been killed.

[2] = tested on: caterpillars of the army worm (Spodoptera frugiperda); test: Spodoptera frugiperda test (SPODFR spray treatment); assay type: in vivo; conditions: for Kill rate after 7d in %: spray treatment
Description: Spodoptera frugiperda Test (SPODFR Spray Treatment) Solvents: 78 parts by weight of acetone • • 1.5 parts by weight of dimethylformamide Emulsifier: 0.5 part by weight of alkylaryl polyglycol ether To produce a suitable preparation of active compound, 1 part by weight of active compound is mixed with the stated amounts of solvents and emulsifier and the concentrate is diluted with emulsifier-containing water to the desired concentration. Discs of maize leaves (Zea mays) are sprayed with an active compound preparation of the desired concentration and after drying populated with caterpillars of the army worm (Spodoptera frugiperda). After the desired period of time, the activity in % is determined. 100% means that all of the caterpillars have been killed; 0% means that none of the caterpillars have been killed.

[3] = tested on: Spodoptera frugiperda larvae; test: Spodoptera frugiperda test (treatment by watering); assay type: in vivo; conditions: for Kill rate after 14d in %: 20 ppm, treatment by watering
Description: Spodoptera frugiperda Test Solvent: 7 parts by weight of dimethylformamide Emulsifier: 2 parts by weight of alkylaryl polyglycol ether To produce a suitable preparation of active compound, 1 part by weight of active compound is mixed with the stated amounts of solvent and emulsifier and the concentrate is diluted with water to the desired concentration. Maize plants (Zea mays) are watered with an active compound preparation of the desired concentration and infected with Spodoptera frugiperda larvae. After the desired period of time, the kill in % is determined. 100% means that all larvae have been killed; 0% means that none of the larvae have been killed.

[4] = tested on: caterpillars of the army worm (Spodoptera exigua); test: Spodoptera exigua test (leaf dip); assay type: in vivo
Description: (§2) Spodoptera exigua Test Solvent: 7 parts by weight of dimethylformamide Emulsifier: 2 parts by weight of alkylaryl polyglycol ether To produce a suitable preparation of active compound, 1 part by weight of active compound is mixed with the stated amounts of solvent and emulsifier and the concentrate is diluted with emulsifier-containing water to the desired concentration. Cabbage leaves (Brassica oleracea) are treated by being dipped into the active compound preparation of the desired concentration and populated with caterpillars of the army worm (Spodoptera exigua) while the leaves are still moist. After the desired period of time, the kill in % is determined. 100% means that all caterpillars have been killed; 0% means that none of the caterpillars have been killed.

[5] = tested on: caterpillars of the cotton bollworm (Heliothis armigera); test: Heliothis armigera test (leaf dip); assay type: in vivo
Description: as §2, with “Heliothis armigera” for “Spodoptera exigua”, “Soya bean” for “Cabbage”, “(Glycine max.)” for “(Brassica oleracea)”, “cotton bollworm (Heliothis armigera)” for “army worm (Spodoptera exigua)”

[6] = tested on: Spodoptera exigua, resistant strain; test: Spodoptera exigua test; resistant strain; assay type: in vivo; conditions: for Kill rate after 7d in %: resistant strain
Description: Spodoptera exigua Test; Resistant Strain
Solvent: 7 parts by weight of dimethylformamide
Emulsifier: 2 parts by weight of alkylaryl polyglycol ether
To produce a suitable preparation of active compound, 1 part by weight of active compound is mixed with the stated amounts of solvent and emulsifier and the concentrate is diluted with emulsifier-containing water to the desired concentration.
Cabbage leaves (Brassica oleracea) are treated by being dipped into the active compound preparation of the desired concentration and populated with caterpillars of the army worm (Spodoptera exigua, resistant strain) while the leaves are still moist.
After the desired period of time, the kill in % is determined. 100% means that all caterpillars have been killed; 0% means that none of the caterpillars have been killed.

[7] = tested on: caterpillars of the diamondback moth (Plutella xylostella); test: Plutella test (leaf dip); assay type: in vivo
Description: as §2, with “Plutella” for “Spodoptera exigua”, “Cabbages” for “Cabbage”, “diamondback moth (Plutella xylostella)” for “army worm (Spodoptera exigua)”

[8] = tested on: green peach aphid (Myzus persicae); test: Myzus test; oral; assay type: in vivo; conditions: for Kill rate after 5d in %: 100 ppm, oral
Description: Myzus Test; Oral Solvent: 80 parts by weight of acetone To produce a suitable preparation of active compound, 1 part by weight of active compound is mixed with the stated amounts of solvent and the concentrate is diluted with water to the desired concentration. Vessels are populated with all stages of the green peach aphid (Myzus persicae) which are treated by sucking the active compound preparation of the desired concentration. After the desired period of time, the activity in % is determined. 100% means that all aphids have been killed; 0% means that none of the aphids have been killed.

[9] = logP determination by HPLC (reversed-phase C18), EEC Directive 79/831 Annex V.A8; assay type: physicochemical; conditions: HPLC reversed-phase C18, 43° C., acidic range pH 2.7
Description: The logP values given in the tables and Preparation Examples above are determined in accordance with EEC Directive 79/831 Annex V.A8 by HPLC (High Performance Liquid Chromatography) on a reversed-phase column (C 18). Temperature: 43° C. The determination by LC-MS in the acidic range is carried out at pH 2.7 using 0.1% aqueous formic acid and acetonitrile (contains 0.1% formic acid) as mobile phases; linear gradient from 10% acetonitrile to 95% acetonitrile. Calibration is carried out using unbranched alkan-2-ones (having 3 to 16 carbon atoms) with known logP values (determination of the logP values by the retention times using linear interpolation between two successive alkanones).

[10] = tested on: Diabrotica undecimpunctata; test: Diabrotica undecimpunctata (DIABUN) test (eggs); assay type: in vivo
Description: Diabrotica undecimpunctata (DIABUN) Solvents: 1% of N-methylpyrrolidone (NMP) • 1% of diacetone alcohol Dye: brilliant sulphoflavin for staining the water To produce a suitable preparation of active compound, the active compound is mixed with the stated amounts of solvents and the concentrate is diluted with stained water to the desired concentration. The eggs (Diabrotica undecimpunctata) are treated with an active compound preparation of the desired concentration. After the desired period of time, the activity in % is determined. 100% means that all animals have been killed; 0% means that none of the animals have been killed.

[11] = tested on: green peach aphid (Myzus persicae); test: Myzus test (MYZUPE spray treatment); assay type: in vivo; conditions: for Kill rate after 5d in %: 100 g/ha, spray treatment
Description: as §1, with “Myzus” for “Phaedon”, “Test (MYZUPE Spray Treatment)” for “Test”, “pekinensis), which are infested by all stages of the green peach aphid (Myzus persicae)” for “pekinensis)”, “concentration.” for “concentration and, after drying, populated with larvae of the mustard beetle (Phaedon cochleariae).”, “aphids” for “beetle larvae”

| SMILES | logP [9] | activity in the Phaedon test (in words) [1] | activity in the Spodoptera frugiperda test, spray treatment (in words) [2] | Kill rate after 14d in % [3] [%] | activity in the Spodoptera exigua test (in words) [4] | activity in the Heliothis armigera test (in words) [5] | activity in the Spodoptera exigua test, resistant strain (in words) [6] | activity in the Plutella test (in words) [7] | activity in the Myzus test, oral (in words) [8] | Kill rate after 7d in % ([1]; 100 g/ha) [%] | Kill rate after 7d in % ([2]; 100 g/ha) [%] | activity in the Myzus test, spray treatment (in words) [11] | Kill rate after 5d in % [11] [%] | Kill rate after 5d in % [8] [%] | further results |
| --- | --- | --- | --- | --- | --- | --- | --- | --- | --- | --- | --- | --- | --- | --- | --- |
| O=C(Nc1c(Cl)cc(Cl)cc1C1=NOCCO1)c1cc(C(F)(F)F)nn1-c1cccc(Cl)n1 [Example I-1-1] |  | good activity | good activity | 95 | good activity | good activity | good activity | good activity | good activity |  |  |  |  |  | Kill rate after 7d in % ([1]; 500 g/ha): 100%; Kill rate after 7d in % ([2]; 500 g/ha): 100%; activity in the Spodoptera frugiperda test, watering (in words) [3]: good activity; Kill rate after 7d in % ([4]; 20 ppm): 100%; Kill rate after 7d in % ([5]; 20 ppm): 100%; Kill rate after 7d in % ([6]; 100 ppm): 100%; Kill rate after 7d in % ([7]; 100 ppm): 100% |
| Cc1cc(Cl)cc(C2=NOCCO2)c1NC(=O)c1cc(Br)nn1-c1ncccc1Cl [Example I-1-5] | 3.13 | good activity | good activity |  |  |  |  |  |  | 83 | 100 |  |  |  | activity in the Diabrotica undecimpunctata test (in words) [10]: good activity; Kill rate after 2-5d in % ([10]; 300 ppm, 2-5 d, eggs): 100% |
| Cc1cc(Br)cc(C2=NOCCO2)c1NC(=O)c1cc(C(F)(F)F)nn1-c1ncccc1Cl [Example I-1-11] | 3.58 | good activity | good activity | 98 | good activity | good activity | good activity | good activity |  | 100 | 100 |  |  |  | activity in the Spodoptera frugiperda test, watering (in words) [3]: good activity; Kill rate after 7d in % ([4]; 20 ppm): 100%; Kill rate after 7d in % ([5]; 20 ppm): 100%; Kill rate after 7d in % ([6]; 20 ppm): 80%; Kill rate after 7d in % ([7]; 20 ppm): 80% |
| Cc1cccc(C2=NOCCN2)c1NC(=O)c1cc(Cl)nn1-c1ncccc1Cl [Example I-1-17] | 1.65 | good activity | good activity | 98 | good activity | good activity | good activity | good activity |  |  | 100 | good activity | 100 |  | Kill rate after 7d in % ([4]; 4 ppm): 100%; Kill rate after 7d in % ([5]; 4 ppm): 100%; Kill rate after 7d in % ([6]; 4 ppm): 100%; Kill rate after 7d in % ([7]; 4 ppm): 100% |

Now from value to compound, other results behind:

| logP [9] | SMILES | activity in the Phaedon test (in words) [1] | activity in the Spodoptera frugiperda test, spray treatment (in words) [2] | Kill rate after 14d in % [3] [%] | activity in the Spodoptera exigua test (in words) [4] | activity in the Heliothis armigera test (in words) [5] | activity in the Spodoptera exigua test, resistant strain (in words) [6] | activity in the Plutella test (in words) [7] | activity in the Myzus test, oral (in words) [8] | Kill rate after 7d in % ([1]; 100 g/ha) [%] | Kill rate after 7d in % ([2]; 100 g/ha) [%] | activity in the Myzus test, spray treatment (in words) [11] | Kill rate after 5d in % [11] [%] | Kill rate after 5d in % [8] [%] | further results |
| --- | --- | --- | --- | --- | --- | --- | --- | --- | --- | --- | --- | --- | --- | --- | --- |
| 2.39 | Cc1cc(I)cc(C2=NOCCN2)c1NC(=O)c1cc(Br)cn1-c1ncccc1Cl [Example I-1-22] | good activity | good activity |  |  |  |  |  | good activity | 100 | 100 | good activity | 100 | 100 |  |
| 2.21 | Cc1cc(I)cc(C2=NOCCN2)c1NC(=O)c1cc(Br)nn1-c1ncccc1Cl [Example I-1-23] | good activity | good activity |  |  |  |  |  | good activity | 100 | 100 | good activity | 90 | 100 |  |
| 2.66 | Cc1cc(I)cc(C2=NOCCN2)c1NC(=O)c1cc(C(F)(F)F)nn1-c1ncccc1Cl [Example I-1-24] | good activity | good activity |  |  |  |  |  | good activity | 100 | 100 | good activity | 90 | 100 |  |
